Measured values as given in patent publication US20140206629A1, “Stromal Derived Factor Inhibition And CXCR4 Blockade” (RHODE ISLAND HOSPITAL, priority 2011, published 2014).
Entries after “also recorded” stand apart in the source; their conditions may differ.

Key:
[1] = tested on: human subacromial bursal cells; assay: Cytokine stimulation of SDF-1α mRNA expression in cultured bursal cells (RT-PCR); format: cell-based; settings: cytokine-treated bursal cells vs controls; maximal at 24 hours
Method: (§1) Human subacromial bursal biopsy specimens were obtained as above. Tissues were washed with Hank's balanced salt solution (Gibco), minced with scissors, and resuspended in Dulbecco's minimum essential medium (DMEM, Gibco) containing 1 mg/ml collagenase, 0.15 mg/ml DNase, and 0.15 mg/ml hyaluronidase. The tissue was enzymatically digested for 2 hours at 37° C. and then passed through sterile gauze to remove any undigested fragments. Cells were seeded in 75 cm2 flasks with DMEM supplemented with 10% fetal bovine serum (FBS), 100 U/ml penicillin, 100 μg/ml streptomycin, and 0.1% fungizone (amphotericin B) and grown at 37° C. in a humidified atmosphere of 5% CO2 and 95% air. Subcultures were performed with Trypsin-EDTA treatment (Gibco).
Subacromial bursal cells were cultured as above. […] SDF-1 mRNA was quantified with SDF-1 specific primers SDF-1FOR (5′-GATTGTAGCCCGGCT GAAGAA-3′) (SEQ ID NO: 11) and SDF-1BACK (5′-[…]-3′) (SEQ ID NO: 12). […]
SDF-1 expression was induced by stimulating bursal cells with IL-1β. SDF-1 levels were measured in cell supernatants and mRNA levels were tested using real-time RT-PCR at various time points. […]
(§2) Subacromial bursa specimens were obtained from patients undergoing shoulder surgery. […] Early-passaged cells were then treated with cytokines ([…] and IL-6) and SDF-1α expression was measured by ELISA and RT-PCR.

[2] = tested on: human subacromial bursal cells; assay: Cytokine stimulation of SDF-1α protein production in cultured bursal cells (ELISA); format: cell-based
Method: as §1
SDF-1 expression was induced by stimulating bursal cells with IL-1β. SDF-1 levels were measured in cell supernatants and mRNA levels were tested using real-time RT-PCR at various time points. SDF-1 expression increased with time and occurred in a dose-dependent fashion. […] (FIG. 3) These experiments were reproducible with cells grown from several different tissue samples.
as §2

[3] = tested on: IL-1β induced SDF-1 expression in human subacromial bursal cells; assay: SDF-1α protein (ELISA) in supernatants of IL-1β-treated cultured bursal cells with inhibitors; format: cell-based; settings: bursal cells treated with IL-1β 20 ng/mL plus inhibitor
Method: as §1
Subacromial bursal cells were cultured as above. After the first passage, cells were plated into 6-well plates and grown to 85% confluence. Wells were then treated (in triplicate) with IL-1β 20 ng/mL and respective inhibitors (AMD3100, T140 analog, dexamethasone or NSAID). After 24 hours, supernatants were collected and assayed for SDF-1α expression using Quantikineâ Human SDF-1α enzyme immunoassay kit (R & D System) according to the manufacturer's instructions. Standard curves were reconstituted using SDF-1α protein. The optical density of each well was determined using a microplate reader set to 450 nm wavelength. […]

CCR5 = CCR5 (Homo sapiens, UniProt P51681); settings: cited from earlier work
Chain of CCR5 (P51681 whole entry): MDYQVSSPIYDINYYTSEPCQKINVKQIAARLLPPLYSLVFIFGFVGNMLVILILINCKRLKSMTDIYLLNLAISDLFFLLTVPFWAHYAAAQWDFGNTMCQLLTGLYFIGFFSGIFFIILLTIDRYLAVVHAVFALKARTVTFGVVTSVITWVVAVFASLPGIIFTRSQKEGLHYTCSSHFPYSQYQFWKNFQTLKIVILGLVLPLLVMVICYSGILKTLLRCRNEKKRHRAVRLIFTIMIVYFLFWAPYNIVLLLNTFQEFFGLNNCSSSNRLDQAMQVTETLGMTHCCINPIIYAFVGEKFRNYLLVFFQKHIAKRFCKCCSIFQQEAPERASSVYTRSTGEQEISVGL

[4] = tested on: human subacromial bursal cells; assay: Cell migration assay of bursal cells in response to SDF-1 stimulation; format: cell-based; settings: in the presence of CXCR4 inhibitor
Description: FIG. 6 is a bar graph showing cell migration assay of human subacromial bursal cells in the presence of CXCR4 inhibitors AMD3100 and T140.

[5] = tested on: IL-1β induced SDF-1 mRNA expression in human subacromial bursal cells; assay: SDF-1α mRNA (RT-PCR) in IL-1β-treated cultured bursal cells with inhibitors; format: cell-based; settings: bursal cells treated with IL-1β plus inhibitor
Method: Subacromial bursal cells were cultured as above. First-passaged cells were treated with IL-1β and respective inhibitors as above. Total RNA was isolated using Qiagen RNeasy Mini Kit (Qiagen, Valencia, Calif.). First-strand cDNA was synthesized using 1 μg of total RNA and Superscript III™ First-Strand Synthesis System (Invitrogen). […] All PCR were performed in 25-μl reactions on a DNA Engine Opticon™ 2 Detection System (MJ Research, Hercules, Calif.) for 40 cycles in which each cycles consisted of 15 sec at 95° C., 15 sec at 60° C., and 20 sec at 72° C. Results were standardized to GAPDH housekeeping gene. Statistical analysis was performed using the student's t-test. […]

Description for rat rotator cuff tendons: 58 male Lewis rat shoulders underwent surgery using an IACUC approved protocol. The infraspinatus tendon was transected at its insertion to create a tendon defect (FIG. 7). […] Animals were sacrificed at 3, 7, 14, 28 or 42 days. Eight uninjured rat shoulders were used as controls. Preconditioned for 5 cycles to 0.38 mm displacement in tension at a rate of 0.1 mm/s Stress relaxation test for 300 s duration at 0.38 displacement in tension Return to 0.2 N tension followed by a 300 s latency period Tension to failure at a displacement rate of 0.1 mm/s

| Molecule | increase in SDF-1α gene (mRNA) expression [1] | increase in SDF-1α protein production/expression ([2]; cytokine-treated bursal cells) | SDF-1α production, maximal stimulation ([2]; exposure to 20 ng/ml IL-1β) [pg/10^4 cells] | inflammation in the subacromial bursa (rat rotator cuff tendons; rat shoulder with experimentally induced rotator cuff injury) | maximum load in the infraspinatus bone-tendon complex compared to controls (PBS) (rat rotator cuff tendons; rat, osmotic minipump, 3, 7, 14, 28 or 42 days post injury) | decrease of SDF-1α protein production/expression in supernatants [3] [%] | binding to chemokine receptor CCR5 (CCR5) | bursal cell migration in response to SDF-1 stimulation [4] | SDF-1α mRNA expression [5] |
| --- | --- | --- | --- | --- | --- | --- | --- | --- | --- |
| IL-1β | nearly five-fold increase; also recorded: more than five-fold increase | more than five-fold increase | 630 | – | – | – | – | – | – |
| c1cc(CN2CCCNCCNCCCNCC2)ccc1CN1CCCNCCNCCCNCC1 [AMD3100, 1,1′-[1,4-phenylenebis(methylene)]-bis-1,4,8,11-azatetradecane] | – | – | – | reduced inflammation | No statistically significant differences | 40 | does not bind | decreased | only a slight decrease |
| C[C@@H]1C[C@H]2[C@@H]3CCC4=CC(=O)C=C[C@]4(C)[C@@]3(F)[C@@H](O)C[C@]2(C)[C@@]1(O)C(=O)CO [dexamethasone] | – | – | – | – | – | 87 | – | – | – |
